Test results from patent US20080219917A1, “HARMONIZED WATER AND AQUEOUS SOLUTIONS” (DVB GLOBAL, priority 2007, published 2008).

Key:
[1] = system: human dermal fibroblasts, human liver carcinoma cells (HepG2), and neuronal human astrocytes; settings: same experiments (Sayes, 2004); cited from earlier work
Salmonella typhimurium = Salmonella typhimurium reverse mutation assay (AMES test); assay type: cell-based
Source text: Toxicity test for harmonized, Modified Fullerenes has shown this substance is not cytotoxic when the material is subjected to a Salmonella typhimurium reverse mutation assay (AMES test). The Ames test is used to determine any potential mutagenic activity of the test HMF material. The HMF material was exposed to a large number of test organism in an agar plate. The agar plates were monitored for growth of revertants (organisms mutating to the wild type). The number of wild type organisms are counted to estimate the mutagenic potential of the HMF material.

Row | Substance | cytotoxicity [1] | cytotoxicity (Salmonella typhimurium; Toxicity test, AMES test) | mutagenic potential (growth of revertants) (Salmonella typhimurium; agar plate)
1 | C60(OH)24 [Modified Fullerenes] | no cytotoxicity | – | –
2 | [C60(OH)10-36]^Φ/φ [HMF] | – | not cytotoxic | not mutagenic
